Laboratory results published in patent US8946436B2, “Oxazolidinone compounds and their uses in preparation of antibiotics” (Sichuan Gooddoctor Pharmaceutical Group Co., Ltd., priority 2011, dated 2015).
Values after ≈ are worked out from the molar mass of the structure shown. Where two headings read alike, the source gives them in different places.

What was measured:
S. aureus = assay: In vitro antibacterial activity (MIC), S. aureus; format: cell-based, Staphylococcus Aureus; settings: for MIC: S. aureus (12 strains)
Description: Strains: strain ATCC25923 is available from the American Type Culture Collection, and is used as a standard strain of Staphylococcus Aureus;
Liquid medium: MH bouillon culture medium, a product of BD Company, United States of American;
Tested Compounds: compounds 12a, 13 and 14 prepared according to the methods above, and Linezolid purchased from Pfizer.
(§1) The test strain was inoculated into the liquid medium and cultured at 37° C. for 16-18 h. The culture liquid and MH medium were put into two blank wells of a 96-well plate, respectively. Then, the absorptions thereof were measured by a Microplate reader. The difference between the absorption values of the culture liquid and MH medium is the adsorption of the bacteria. The concentration of the culture liquid can be calculated according to the formula of 1OD=50 million CFU/mL. The culture liquid was diluted with the MH bouillon culture medium to 5000 CFU/mL for further use.
(§2) Compounds 12a, 13 and 14 were dissolved in DMSO to 1 mg/mL, and then filtered with a 0.22 μm filter to obtain the compound solutions. And then they were gradually diluted to a desired concentration (10× final concentration) with the liquid medium, so as to obtain a series of dilutions. The final concentration grade of the dilutions of each tested compound consists of 14 concentrations, which includes: 0.03125 μg/mL, […], 0.125 μg/mL, 0.25 μg/mL, […], 1 μg/mL, 2 μg/mL, 4 μg/mL, 8 μg/mL, 16 μg/mL, 32 μg/mL, 64 μg/mL, 128 μg/mL and 256 μg/mL.
(§3) 10 μL of each of the compound dilutions above was added into a well of a 96-well plate. 90 μL of the culture liquid (5000 CFU/mL) was added into each of the wells, respectively, mixed with the dilutions to render the tested compound concentration to the final concentration. The resulted mixture was incubated at 37° C. for 16-18 h, and then the OD630 thereof was measured. A culture liquid free of the tested compounds is used as a blank control, and three parallel tests with the same concentration of each compound were performed. The minimum inhibitory concentration (MIC) of each compound on the standard strain of Staphylococcus Aureus and other test strains was determined. Specifically, among the culture liquid contained in the wells of the micro-plate, the first three lowest concentrations under which growth of the test strains could be observed were chose for further evaluation of the MIC. A culture liquid free of tested compounds was used as a blank control. Each of the culture liquids was homogenized independently, and then was diluted with a sterile saline. Each of the diluted culture liquids was plated onto a MH bouillon plate and incubated at 37° C. for 20 h in incubator. After the incubation, the number of the colonies on each plate was counted. As compared with the blank control group, the lowest concentration of each of the test compound groups, at which 80% reduction in the colony number of the strains was achieved, was recorded as the MIC.

HEK-293 = assay: Cytotoxicity experiment (MTT), HEK-293; format: cell-based; settings: HEK-293 normal cells
Description: (1) Inoculating cells: Experimental cells in the growth of logarithmic phase were collected and suspended. The cell concentration of the suspension was adjusted so that they could be inoculated into the wells of 96-well micro plate at a density between 10^3-10^4 cells per well (200 μl per well). (2) Culturing cells: The cells were cultured at normal conditions for 3 days and then exposed to 50 uM compounds for test. (3) Coloring reaction: At 24 h, 48 h and 72 h after the cells being exposed to the compounds for test, 200 μl culture medium containing 20 μl MTT solution (5 mg/ml) was added into each well, and the well was further incubated at 37° C. for 2 hours to terminate the incubation. After the incubation, the supernatants were removed from the wells. In the event there were suspended cells in the wells, centrifugation should be performed before removal of supernatant from the wells. After the removal, 150 μl DMSO was added to each well and mixed thoroughly by agitation for 10 mins to fully dissolve crystals. (4) Ascertainment of colorimetry: The absorbance value at 490 nm of each well was determined by Enzyme-linked immunosorbent Monitor. The growth curve of the experimental cells was plotted by taking time as x-coordinate and absorbance value as y-coordinate. In addition, an inhibition ratio could be calculated in accordance with the following formula: Inhibition ratio=(absorbance value of control group-absorbance value of administering group)/absorbance value of control group×100%.

[1] = test system: Enterococcus faecium-sensitive vancomycin; assay: MIC against clinically isolated strains, vancomycin sensitive Enterococcus faecium; format: cell-based; settings: Enterococcus faecium-sensitive vancomycin (12 strains)
From the text: Standard strains, including Staphylococcus aureus ATCC29213, S. pneumoniae ATCC49619, E. faecalis ATCC29212, are all available from the American Type Culture Collection.
Clinically isolated strains: There are total 120 clinical strains of gram-positive bacterium including: 37 strains of Staphylococcus aureus (consisting of 14 strains of methicillin sensitive Staphylococcus aureus MSSA and 23 strains of methicillin resistant Staphylococcus aureus MRSA); 27 strains of Streptococcus pneumoniae (consisting of 13 strains of penicillin sensitive Streptococcus pneumoniae PSSP and 14 strains of penicillin insensitive or resistant Streptococcus pneumoniae PISP+PRSP); 15 strains of Streptococcus pyogenes; 17 strains of Streptococcus agalactiae; 24 stains of Enterococcus faecium (consisting of 12 strains of vancomycin sensitive Enterococcus faecium and 12 strains of vancomycin resistant Enterococcus faecium).
(2) Tested compounds: Compound 13f was prepared by the methods above, with potency of over 98%; Linezolid was purchased from Pfizer, with potency of 100%.
Staphylococcus and Enterococcus faecium were incubated in Mueller-Hinton agar medium (MHA medium) at 35° C. for 16-20 h; S. pneumoniae was incubated in Cation-Adjusted Mueller-Hinton Broth medium (CAMHB medium) supplemented with 2.5-5.5% (v/v) lysed horse blood (LHB) at 35° C. for 20-24 h; and Streptococcus were incubated in sheep blood-containing medium (prepared by addition of 5% defibrinated sheep blood into MHA media) at 35° C. for 20-24 h in 5% CO2 environment (CO2 incubator). Before test of the compound activity, each stock of the bacteria strains was activated and colonized in the following manner: the stock was transferred and cultured in a liquid culture medium, the culture liquid was smeared onto an agar plate with an inoculating loop to obtain bacterial colonies on the plate after incubation, and then a colony of the bacteria was chose to be suspended into the liquid culture medium for performing the test of compound activity. As a result, fresh bacteria cells were applied to the test. The standard strains were used as sensitive bacterium to control the quality of the experiments, and a plate or tube containing no antibacterial compounds is used as a blank control for the growth of test strains.
The minimal inhibitory concentration (MIC) of the test compounds on the strains of Streptococcus pneumoniae was determined by a standard broth macrodilution method, while the MIC of the test compounds on the other bacteria stains was determined by standard agar double dilution methods. The concentration of the test compounds was in the range of 32 mg/L-0.016 mg/L. The bacterial suspensions to be tested were inoculated by a multipoint inoculator, and the inoculation amount at each point is 10^4 CFU. The MIC of the test compound to each strain of the bacteria was determined.

E. faecalis = assay: In vitro antibacterial activity (MIC), E. faecalis; format: cell-based; settings: E. faecalis (7 strains)
Description: as §1, §2, §3

| Compound | MIC (S. aureus; Staphylococcus aureus, read-out: MIC) | activity ranking among test compounds (S. aureus; Table 2: S. aureus, S. pneumoniae, S. agalactiae and E. faecalis) | cytotoxicity at 50 µM (HEK-293; Homo sapiens, HEK293, 48 h, read-out: Inhibition ratio) | MICmode [1] | MICrange [1] | MIC (E. faecalis; Enterococcus faecalis, read-out: MIC) | MIC (S. aureus) | Inhibition ratio (HEK-293; 50 uM, 48 h) | MIC50 [1] | MIC90 [1] | MIC (E. faecalis) |
| --- | --- | --- | --- | --- | --- | --- | --- | --- | --- | --- | --- |
| CC(=O)NC[C@H]1CN(c2ccc(-n3cc(-c4ccccn4)cn3)c(F)c2)C(=O)O1 [Compound 13f, (S)-N-((3-(3-fluoro-4-(4-(pyridin-2-yl)-1H-pyrazol-1-yl)phenyl)-2-oxooxazolidin-5-yl)methyl)acetamide] | 0.25 to 2 mg/L (≈ 0.632 to 5.06 µM) | most optimum activity | 2.7% | 1 µg/L | 1 to 2 µg/L | 0.5 to 2 mg/L (≈ 1.26 to 5.06 µM) |  |  |  |  |  |
| CC(=O)NC[C@H]1CN(c2ccc(N3CCOCC3)c(F)c2)C(=O)O1 [Linezolid, reference compound] |  |  |  | 1 µg/L | 1 to 2 µg/L |  | 4 to 32 mg/L | >50% | 0.001 mg/L (≈ 0.00296 µM) | 0.001 mg/L (≈ 0.00296 µM) | 4 to 32 mg/L |
